Holding throughout (format): cell-based
In one assay the test system is HIV-1 IIIB. Description: In vitro HIV-1 prevention model, TZM-bl-FcRI cells, β-galactosidase. As to conditions: TZM-bl-FcRI cells, 0.1, 0.25 and 1 μM peptide, 48 h. On the procedure: Sixty-seven (67) compounds from a library of peptides included in TABLE 1 were evaluated for inhibition of HIV-1 IIIB in TZM-bl-FcRI cells. The compounds were tested at three (3) concentrations with six (6) replicates each for efficacy and toxicity for 48 hours in this model. Virus was diluted 1:128, based on a previous titration. The test article was dissolved in DMSO to generate a stock solution, and dosing solutions were prepared by dilution of the stock solution using the appropriate volume of PBS. These dosing solutions were mixed with predetermined volumes of the virus suspension, based on the titration data, and were incubated for 30 min at 37° C./5% CO2.
Following incubation, the virus/compound mixture was added to pre-plated TZM-bl-FcRI cells and the necessary volume of assay media (based on the titration). The culture was incubated for six hours under the above conditions and then washed to remove residual virus and compound. The cultures were incubated for an additional 48 hours at 37° C./5% CO2 before measuring β-galactosidase in the wells using a chemiluminescent endpoint.
The study was carried out using a 96-well format. The first row of 12 wells was used as a negative control (cells with no virus or test compound added). […] Peptide 346-001 served as a positive control on each plate, such that three other test compounds could be evaluated per plate. […]

For assay [1], the system named is SARS-CoV-2 (2019-nCoV/USA-WA1/2020 strain). Conditions: 60% confluent VERO E6, 48 h.
The test system is the same in assay [2]. Conditions: 80% confluent VERO E6, 48 h.
For assay [3] the test system is unchanged. Conditions: VERO E6, 48 h.

Read-outs that look alike come from different tables or passages of the source.

As to “Ac-SWLRDIWDWICEVLSDFKC(succinimido-propionylaminoethyl-mPEG2K)-NH2 (Ac-SWLRDIWDWICEVLSDFKC(succinimido‑propionylaminoethyl‑mPEG2K)-NH2) [Peptide 346-064]”, in the assay on HIV-1 IIIB, the “potency against HIV-1 compared with peptide 346-001” value is given as “increase in potency”.

For GSWLRDIWDWICEVLSDFK [Peptide 346-003], the “dose response curve shape” value in assay [1] was “unexpected and unusual dose response curve shape”.

For SIWRDWVDLICEFLSDWK [Peptide 346-007], in assay [2], the dose-response relationship entry is “steep dose response relationship” and the “potency relative to the other peptides tested” value was “ca. double”. For “SWLRDIWDWICEVLSDFK [Peptide 346-001, virucidal amphipathic α-helical peptide derived from the hepatitis C virus (HCV) NS5A membrane anchor domain]”, the “reduction on viral copy numbers” value in assay [3] (50 μM dosing concentration) is listed as > 5 orders of magnitude; in assay [3] (125 μM dosing concentration), > 7 orders of magnitude. Moreover, the “potency against SARS-CoV-2 infection” value in assay [3] is “high potency”.

These data come from US20240197814A1, “MATERIALS AND METHODS FOR THE PREVENTION AND TREATMENT OF VIRAL DISEASES” (priority 2021, published 2024).
